Data: patent publication US20230372263A1, “METHODS AND COMPOSITIONS FOR TREATING AMYOTROPHIC LATERAL SCLEROSIS” (Amylyx Pharmaceuticals, Inc., priority 2022, published 2023)

Experiments:
[1] = Population pharmacokinetic model and simulations of PB and PAA (healthy subjects and ALS patients); design: species or system human; details: for Cmax, Mean: from individual Bayesian (post hoc) parameter estimates; for Cmax, 2.5th percentile / Cmax, 97.5th percentile / Cmax, Geometric mean / Cmax, Median: post hoc Bayesian estimates; for V, volume of distribution of PAA: population PK
From the text: The order of administration with and without food was randomly assigned. […] Subjects were advised to take the drug before a meal. […] No inter-occasion variability (IOV) was included.

[2] = Phase II AMX3500 (CENTAUR) sparse sampling: steady-state plasma concentrations of TURSO/TUDCA, UDCA, GUDCA in ALS patients; assay type: in vivo, human; details: patients; comparison across studies
Summary of the method: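 ALS patients dosed with one sachet daily for 3 weeks, then one sachet twice daily if tolerated, for 24 weeks, advised before a meal. Sparse plasma samples were taken 1 or 4 h post-dose at weeks 12 and 24, with sequence randomly assigned. Subgroups covered antibiotic use, eGFR (<90 vs ≥90 mL/min/1.73 m^2) and age (≥65 vs <65).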

**Q.** Which results are given for `O=C(O)Cc1ccccc1` [PAA, phenylacetate]?
**A.** Cmax, Mean ([1]; ALS patients, Fasting): 24100 ng/mL; Cmax, 2.5th percentile ([1]; ALS patients, Fasting): 10100 ng/mL; Cmax, 97.5th percentile ([1]; ALS patients, Fasting): 44200 ng/mL; Cmax, Geometric mean ([1]; ALS patients, Fasting): 22300 ng/mL; Cmax, Median ([1]; ALS patients, Fasting): 23800 ng/mL; Cmax, Mean ([1]; ALS patients, Fed): 16600 ng/mL; Cmax, 2.5th percentile ([1]; ALS patients, Fed): 8160 ng/mL; Cmax, 97.5th percentile ([1]; ALS patients, Fed): 25300 ng/mL; Cmax, Geometric mean ([1]; ALS patients, Fed): 15600 ng/mL; Cmax, Median ([1]; ALS patients, Fed): 16900 ng/mL; estimated steady-state mean Cmax ([1]; ALS patients, based on population PK): 24100 ng/mL; V, volume of distribution of PAA ([1]; Bootstrap Median): 56.1 L; V, volume of distribution of PAA ([1]; Final Model mean estimate): 56.3 L; accumulation in plasma after once- or twice-daily dosing [2]: no accumulation
